Laboratory results taken from US20100113494A1, “13,13a-Dihydroberberine Derivatives For Use In Pharmaceutical Compositions” (SHANGHAI INSTITUTE OF MATERIA MEDICA, CHINESE ACADEMY OF …, priority 2006, published 2010).
Where a name gives a salt, the structure may show the parent alone. Read-outs that look alike come from different tables or passages of the source.

Assays:
[1] = system: C57BL/6J mice fed by high-fat diet; experiment: intraperitoneal glucose tolerance test (ipGTT) in high-fat diet obese mice; type: in vivo; details: 100 mg/kg/day in high-fat diet for 2 weeks, glucose 2 g/kg intraperitoneally
Experimental: (§1) Ten mice per group were used to perform the efficacy study of the compounds. Dihydroberberine derivative 19 or its sulfate salt was mixed into the high-fat diet, and administered at a dose of 100 mg/kg/day for 2 weeks. After the mice were starved overnight, basal blood sugar value (0 min) was measured by taking blood from tail vein. Then the mice were injected glucose intraperitoneally at a dose of 2 g/kg according to the body weight of the mice in control group which were fed by normal diet followed by measuring blood sugar value at 15, 30, 45, 60, 90 and 120 min respectively and calculating the area under curve (AUC). The body weight and visceral fat of the mice were weighted, and the contents of fatty acid and triglyceride in the blood plasma of the mice were determined.
(§2) In FIGS. 2-4, CH-con means the normal mouse, HF-con refers to the obese mouse, HF-BBR19 is the obese mouse treated with dihydroberberine derivative 19 for 2 weeks, and HF-BBR19Y is the obese mouse treated with the sulfate salt of dihydroberberine derivative 19 for 2 weeks.
The mice which had been treated with dihydroberberine derivative 19 or its sulfate salt for 2 weeks and the mice in control group were intraperitoneally injected glucose at 2 g/kg after being starved overnight. […]

[2] = system: C57BL/6J mice fed by high-fat diet; experiment: body weight and visceral fat of high-fat diet obese mice; type: in vivo; details: 100 mg/kg/day for 2 weeks
Experimental: as §1, §2
Thus they may have a potential effect on treating obesity.

[3] = system: C57BL/6J mice fed by high-fat diet; experiment: free fatty acid and triglyceride in blood plasma of high-fat diet obese mice; type: in vivo; details: 100 mg/kg/day for 2 weeks
Experimental: as §1, §2

[4] = system: C57BL/6J mice fed by high-fat diet; experiment: mouse models with insulin resistance and obesity induced by a high-fat diet (experimental conclusion); type: in vivo; details: high-fat diet mouse model
Experimental: as §1

[5] = system: L6 muscle cells; experiment: model test on the glucose transport in L6 muscle cells; type: cell-based; details: 10 μM
Experimental: So, berberine belongs to non-insulin dependent glucose absorption enhancer in the peripheral tissues of the human body. […] In a model test on the glucose transport in L6 muscle cells, the transport rate of 3-methyl glucose in L6 muscle cells increased by about 0.5 times with 400 μM metformin hydrochloride. Berberine hydrochloride could achieve the same effect with less dosage than metformin in a model test on the glucose transport in L6 muscle cells in vitro.
(§3) In our study, the glucose transport rate in L6 muscle cells increased by about 3 times with 10 μM berberine hydrochloride. In a further glucose absorption model test in L6 muscle cells, the glucose absorption in L6 muscle cells increased by more than 2 times with […] berberine hydrochloride in 20 mM glucose medium. […] The improvement in glucose absorption induced by insulin was inhibited obviously, while that induced by berberine was not affected after the treatment with wortmannin, a specific inhibitor of insulin signaling pathway.

[6] = system: L6 muscle cells; experiment: glucose absorption model test in L6 muscle cells; type: cell-based
Experimental: as §3

[7] = system: insulin signaling pathway; experiment: immunoblotting assay of L6 muscle cells, insulin signaling pathway; type: cell-based
[8] = system: AMPK; experiment: immunoblotting assay of L6 muscle cells, AMPK; type: cell-based
[9] = system: p38 MAPK kinase; experiment: immunoblotting assay of L6 muscle cells, p38 MAPK; type: cell-based
[10] = system: AMP:ATP ratio in cells; experiment: AMP:ATP ratio in cells by high performance liquid chromatography; type: cell-based; details: HPLC
[11] = system: HepG2 cells; details: 5-100 μmol of berberine; cited from earlier work
[12] = system: βTC3 cells; details: cited from earlier work
[13] = system: type 2 diabetic patients; details: cited from earlier work
[14] = system: normal mice and alloxan-induced diabetic mice; details: Chen, Xie 1986, cited from earlier work
[15] = system: diabetic mice; details: Liu 1996; cited from earlier work
[16] = system: insulin receptor genes and peroxisome proliferator activated receptor genes; details: Jiang, CN01121906.8; cited from earlier work
[17] = system: L6 muscle cells; details: 400 μM; cited from earlier work

Compound: COc1ccc2c(c1OC)CN1CCc3cc4c(cc3C1=C2)OCO4 [Compound 19]
- glucose tolerance (ipGTT, area under curve) [1]: significantly improved
- increase in body weight versus control group [2]: significantly less
- ratio of intra-abdominal (visceral) fat to body weight versus control group [2]: lowered significantly
- content of free fatty acid (NEFA) in blood plasma ([3]; HF-Con 0.76±0.03): 0.6 ± 0.05 mmol/L
- content of triglyceride TG in blood plasma ([3]; HF-Con 1.20±0.05): 0.86 ± 0.08 mmol/L
- improving insulin resistance [4]: significant effects
- relieving fatty liver [4]: significant effects

Compound: COc1ccc2cc3[n+](cc2c1OC)CCc1cc2c(cc1-3)OCO2 [berberine hydrochloride]
- increase of glucose transport rate in L6 muscle cells [5]: about 3 times
- increase of glucose absorption in L6 muscle cells ([6]; 5 berberine hydrochloride in 20 mM glucose medium): more than 2 times

Compound: COc1ccc2cc3[n+](cc2c1OC)CCc1cc2c(cc1-3)OCO2 [berberine, Berberine]
- glucose absorption induced by berberine after treatment with AMPK and p38 MAPK specific inhibitors ([6]; Compound C and SB202190): obviously lowered
- glucose absorption induced by berberine after treatment with wortmannin ([6]; wortmannin, specific inhibitor of insulin signaling pathway): not affected
- effect on insulin signaling pathway [7]: little effect
- activity of AMPK [8]: significantly reinforced
- activity of p38 MAPK kinase [9]: significantly reinforced
- AMP:ATP ratio in cells [10]: increased significantly
- increase of glucose consumption in HepG2 cells [11]: 32-60%
- stimulation of βTC3 cells to secrete insulin [12]: did not stimulate
- fasting blood glucose levels of all patients ([13]; 20 cases not improved by D860, glibenclamide etc., 3 months, Zhang 1999): levels of all patients were lowered to normal levels 3 months
- side effects ([13]; 20 cases, Zhang 1999): dependent on dose, and no side effects such as hypoglycemia
- total efficiency ([13]; 57 cases, berberine added after secondary failure of sulfonylurea alone or with metformin, 1 month, Wang 2002): efficiency was 81%.
- adverse effect during the treatment ([13]; 60 cases, 1-3 months, Ni 1988): hemogram during the treatment and no obvious adverse effect
- average decrease of fasting blood glucose ([13]; 60 cases, 1-3 months, Ni 1988): that the fasting blood glucose decreased averagely by 5.1 mmol/L
- toxic and/or adverse effects observed ([13]; 60 cases, Hu 1995): patients with overweight recovered their normal weights. No
- blood serum insulin levels after the treatment ([13]; 68 cases, Shi 2000): The blood serum insulin levels of the patients increased
- total efficiency ([13]; 68 cases, Shi 2000): significantly, and the total efficiency was 86.8%. The action
- time to disappearance of polyuria, polydipsia and polyphagia for all patients ([13]; 75 cases, Yu 1994): within two weeks after administration of berberine accompanying
- blood glucose levels, observed clinically ([13]; Juan WANG 2004): decreased
- blood serum insulin levels, observed clinically ([13]; Juan WANG 2004): increased
- curative effect (blood glucose, blood serum insulin) compared with Diamicron group ([13]; non-insulin dependent diabetic patients, 30 persons per group, 4 weeks, Yu, Yan 1995): showed that the two groups had similar curative effects and no
- patients observed with adverse effects or hypoglycemia ([13]; observed for 4 years, regardless of dose, Yu 1994): treated with berberine and observed for 4 years, and none of them
- effect on lowering blood glucose ([14]; dose of 40 mg/kg): atherosclerosis. It had a significant effect on lowering blood
- lowering blood glucose levels ([14]; normal mice and alloxan-induced diabetic mice): biguanides. It can lower blood glucose levels of both normal mice
- effect on reversing diabetic renal failure [15]: has a significant effect on reversing diabetic renal failure and
- expressions of insulin receptor genes and peroxisome proliferator activated receptor genes [16]: Berberine can interact with insulin receptors and increase

Compound: CN(C)C(=N)N=C(N)N [metformin hydrochloride]
- increase of transport rate of 3-methyl glucose in L6 muscle cells [17]: about 0.5 times
